Reference: patent publication US20230203043A1, “NOVEL IMIDAZOPYRAZINE DERIVATIVES” (Hoffmann-La Roche Inc., priority 2020, published 2023)
Where a name gives a salt, the structure may show the parent alone.

Tested on: Acinetobacter baumannii ATCC17961
Experiment: Antimicrobial susceptibility testing: 90% growth inhibitory concentration (IC90) determination in Iso-Sensitest broth, OD600 growth
Format: cell-based
Conditions: Acinetobacter baumannii, ATCC17961, 16 h, read-out: A. baumannii ATCC 17961 IC90 (uM), strain ATCC 17961, OD600 growth over 16 h
Method in brief: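 OD600 read every 20 min for 16 h at 35±2° C; inhibition taken in log phase to derive IC90. Twofold, 10-point dilutions (e.g. 50–0.097 μM final), inoculum ~5×10^(5) CFU/ml.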

`NCCN1CCN(C(=O)c2ccc(Nc3nccn4c(-c5c[nH]nc5C(F)(F)F)cnc34)cc2Cl)CC1` [Example 571, (4-(2-aminoethyl)piperazin-1-yl)(2-chloro-4-((3-(3-(trifluoromethyl)-1H-pyrazol-4-yl)imidazo[1,2-a]pyrazin-8-yl)amino)phenyl) methanone formate] and `O=C(N[C@@H]1CCNC1)N1CCN(C(=O)c2ccc(Nc3nccn4c(-c5c[nH]nc5C(F)(F)F)cnc34)cc2Cl)CC1` [Example 391, 4-[2-chloro-4-[[3-[3-(trifluoromethyl)-1H-pyrazol-4-yl]imidazo[1,2-a]pyrazin-8-yl]amino]benzoyl]-N-[(3R)-pyrrolidin-3-yl]piperazine-1-carboxamide formate] are within 1.5-fold of each other in IC90: 0.192 µM for the first, 0.203 µM for the second.

Going from `CCc1cc(Nc2nccn3c(-c4cn(CCF)nc4C(F)F)cnc23)ccc1C(=O)N1CCN(C(=O)C2CCNCC2)CC1` [Example 770, (4-(4-((3-(3-(difluoromethyl)-1-(2-fluoroethyl)-1H-pyrazol-4-yl)imidazo[1,2-a]pyrazin-8-yl)amino)-2-ethylbenzoyl)piperazin-1-yl)(piperidin-4-yl)methanone formate] to `CCc1cc(Nc2nccn3c(-c4c[nH]nc4C(F)(F)F)cnc23)ccc1C(=O)NCCCNC(=O)[C@@H]1C[C@@H](O)CN1` [Example 434, (2S,4R)-N-[3-[[2-ethyl-4-[[3-[3-(trifluoromethyl)-1H-pyrazol-4-yl]imidazo[1,2-a]pyrazin-8-yl]amino]benzoyl]amino]propyl]-4-hydroxypyrrolidine-2-carboxamide formate], the IC90 falls from 0.929 µM to 0.463 µM (2-fold).

Going from `CCc1cc(Nc2nccn3c(-c4cn(CC#N)nc4-c4ccccc4)cnc23)ccc1C(=O)NCCOCCN` [Example 781, N-[2-(2-aminoethoxy)ethyl]-4-[[3-[1-(cyanomethyl)-3-phenyl-pyrazol-4-yl]imidazo[1,2-a]pyrazin-8-yl]amino]-2-ethyl-benzamide formate] to `Cc1cc(Nc2nccn3c(-c4cn(CC#N)nc4C(F)(F)F)cnc23)ccc1C(=O)NCC(=O)N1CC(N)C1` [Example 751, N-[2-(3-aminoazetidin-1-yl)-2-oxo-ethyl]-4-[[3-[1-(cyanomethyl)-3-(trifluoromethyl)pyrazol-4-yl]imidazo[1,2-a]pyrazin-8-yl]amino]-2-methyl-benzamide formate], the IC90 falls from 1.09 µM to 0.627 µM (1.7-fold).

Same assay, conditions: Acinetobacter baumannii, ATCC17961, 16 h, strain ATCC 17961, OD600 growth over 16 h, read-out: A. baumannii ATCC 17961 IC90

Compared with `C#CCn1cc(-c2cnc3c(Nc4ccc(C(=O)NCCOCCN)c(CC)c4)nccn23)c(C(F)(F)F)n1` [Example 174, N-[2-(2-aminoethoxy)ethyl]-2-ethyl-4-[[3-[1-prop-2-ynyl-3-(trifluoromethyl)pyrazol-4-yl]imidazo[1,2-a]pyrazin-8-yl]amino]benzamide], `CCc1cc(Nc2nccn3c(-c4cn(CCNC)nc4C(F)(F)F)cnc23)ccc1C(=O)NC` [Example 298, 2-ethyl-N-methyl-4-[[3-[1-[2-(methylamino)ethyl]-3-(trifluoromethyl)pyrazol-4-yl]imidazo[1,2-a]pyrazin-8-yl]amino]benzamide] is 16-fold higher in IC90: 0.081 µM for the first, 1.32 µM for the second.

Compared with `O=C(NC1CCC(NC(=O)[C@H]2C[C@H](O)CN2)C1)c1ccc(Nc2nccn3c(-c4c[nH]nc4C(F)(F)F)cnc23)cc1Cl` (mixture of isomers) [Example 373, rac-(2R,4S)-N-[3-[[2-chloro-4-[[3-[3-(trifluoromethyl)-1H-pyrazol-4-yl]imidazo[1,2-a]pyrazin-8-yl]amino]benzoyl]amino]cyclopentyl]-4-hydroxypyrrolidine-2-carboxamide], `O=C(c1ccc(Nc2nccn3c(-c4c[nH]nc4C(F)(F)F)cnc23)cc1Cl)N1CCN(C(=O)[C@H]2CCNC2)CC1` [Example 208, [2-chloro-4-[[3-[3-(trifluoromethyl)-1H-pyrazol-4-yl]imidazo[1,2-a]pyrazin-8-yl]amino]phenyl]-[4-[(3S)-pyrrolidine-3-carbonyl]piperazin-1-yl]methanone] is 4.8-fold lower in IC90: 1.11 µM for the first, 0.232 µM for the second.

`CCc1cc(Nc2nccn3c(-c4cn(CC(F)F)nc4C(F)(F)F)cnc23)ccc1C(=O)N[C@H](C)CNC(=O)[C@@H]1C[C@@H](O)CN1` [Example 684, (2S,4R)-N-((R)-2-(4-((3-(1-(2,2-difluoroethyl)-3-(trifluoromethyl)-1H-pyrazol-4-yl)imidazo[1,2-a]pyrazin-8-yl)amino)-2-ethylbenzamido)propyl)-4-hydroxypyrrolidine-2-carboxamide] and `Cc1cc(Nc2nccn3c(-c4cn(CC(F)F)nc4C(F)(F)F)cnc23)cc(F)c1C(=O)N[C@H](C)CNC(=O)CN` [Example 673, (R)-N-(1-(2-aminoacetamido)propan-2-yl)-4-((3-(1-(2,2-difluoroethyl)-3-(trifluoromethyl)-1H-pyrazol-4-yl)imidazo[1,2-a]pyrazin-8-yl)amino)-2-fluoro-6-methylbenzamide] are within 1.5-fold of each other in IC90: 0.34 µM for the first, 0.314 µM for the second.

`CNC(=O)c1ccc(Nc2nccn3c(-c4cn(CCC#N)nc4C(F)(F)F)cnc23)cc1Cl` [Example 358, 2-chloro-4-[[3-[1-(2-cyanoethyl)-3-(trifluoromethyl)pyrazol-4-yl]imidazo[1,2-a]pyrazin-8-yl]amino]-N-methylbenzamide] and `NCCOCCNC(=O)c1ccc(Nc2nccn3c(-c4c[nH]nc4C(F)(F)F)cnc23)cc1Cl` [Example 361, N-[2-(2-aminoethoxy)ethyl]-2-chloro-4-[[3-[3-(trifluoromethyl)-1H-pyrazol-4-yl]imidazo[1,2-a]pyrazin-8-yl]amino]benzamide hydrochloride] are within 1.5-fold of each other in IC90: 0.189 µM for the first, 0.267 µM for the second.

`C#CCNCCCNC(=O)c1c(C)cc(Nc2nccn3c(-c4cn(CC#C)nc4C(F)(F)F)cnc23)cc1F` [Example 72, 2-fluoro-6-methyl-N-[3-(prop-2-ynylamino)propyl]-4-[[3-[1-prop-2-ynyl-3-(trifluoromethyl)pyrazol-4-yl]imidazo[1,2-a]pyrazin-8-yl]amino]benzamide] and `Cc1cc(Nc2nccn3c(-c4cn(CCF)nc4C(F)(F)F)cnc23)cc(F)c1C(=O)N1CCN(C(=O)[C@H]2CC[C@H](O)N2)CC1` [Example 714, (4-(2-fluoro-4-((3-(1-(2-fluoroethyl)-3-(trifluoromethyl)-1H-pyrazol-4-yl)imidazo[1,2-a]pyrazin-8-yl)amino)-6-methylbenzoyl)piperazin-1-yl)((2R,5S)-5-hydroxypyrrolidin-2-yl)methanone] are within 1.5-fold of each other in IC90: 0.599 µM for the first, 0.422 µM for the second.

First: O=C(c1ccc(Nc2nccn3c(-c4cn(CC(F)F)nc4C(F)(F)F)cnc23)cc1Cl)N1CCN(C(=O)[C@H]2[C@@H]3CNC[C@@H]32)CC1 [Example 519, (4-((1R,5S,6r)-3-azabicyclo[3.1.0]hexane-6-carbonyl)piperazin-1-yl)(2-chloro-4-((3-(1-(2,2-difluoroethyl)-3-(trifluoromethyl)-1H-pyrazol-4-yl)imidazo[1,2-a]pyrazin-8-yl)amino)phenyl) methanone formate]
Second: CCc1cc(Nc2nccn3c(-c4cn(CCF)nc4C(F)F)cnc23)ccc1C(=O)N1CCN(C(=O)[C@@H]2C[C@@H](O)CN2)CC1 [Example 795, (4-(4-((3-(3-(difluoromethyl)-1-(2-fluoroethyl)-1H-pyrazol-4-yl)imidazo[1,2-a]pyrazin-8-yl)amino)-2-ethylbenzoyl)piperazin-1-yl)((2S,4R)-4-hydroxypyrrolidin-2-yl)methanone]
The IC90 of the first is 15-fold lower: 0.147 µM for the first, 2.23 µM for the second.
